Experimental data from patent US20200079757A1, “COMPOUNDS FOR THE TREATMENT OF RESPIRATORY DISEASES” (THE UNIVERSITY OF MELBOURNE, priority 2017, published 2020).
Where two headings read alike, the source gives them in different places.

How the values were obtained:
TGFβ-activated A549 [1] = test: TGFβ-activated A549 gene expression (modulation of mRNA level, RT-qPCR); format: cell-based; details: for IC50: Homo sapiens, A549, agent 0.1-10 μM before TGF-β (100 pM) 24 hr
Protocol: The selected potential candidate was also assayed in A549 alveolar epithelial cells, a commonly-used cell model for epithelial-mesenchymal transition (EMT) investigation. The agents were added at the indicated concentrations 30 min prior to the addition of TGF-β which was incubated for a further 24 hours. Then, the cellular RNA was harvested to measure the regulation of the EMT-associated genes and fibrogenic genes.
A549 alveolar epithelial cells (ATCC, Manasas, Va., USA) were cultured in DMEM containing 5% (v/v) FCS, 15 mM HEPES, 0.2% (v/v) sodium bicarbonate, 2 mM L-glutamine, 1% (v/v) non-essential amino acids, 1% (v/v) sodium pyruvate, 5 IU/mL penicillin and 50 μg/mL streptomycin as previously described (S. Salem, T. Harris, J. Mok Shiueh Lian, M. Yuen Sin Li, C. R. Keenan, M. J. Schuliga, and A. G. Stewart (2012). Transforming growth factor-p impairs glucocorticoid activity in the A549 lung adenocarcinoma cell line. Br J Pharmacol. 166: 2036-2048).
(§1) Prior to experimentation, BEAS-2B and A549 cells were incubated in serum-free DMEM containing 0.25% bovine serum albumin (BSA) and insulin-transferrin-selenium—containing supplement (Monomed A; CSL, Parkville, Melbourne, Australia). Where indicated, cells were treated with one of the series of synthesised compounds (0.3-10 μM) prior to exposure to 100 pM TGF-β1 (R&D Systems, Minneapolis, Minn.) or 300 pM bFGF (Promega, Madison, Wis.).
(§2) Total RNA was extracted from cultured cells using illustra RNAspin Mini RNA Isolation Kit (GE Healthcare). RNA extracts were reverse-transcribed into cDNA using High-Capacity RNA-to-cDNA Kit (Applied Biosystems). Real-time PCR was then performed using a QuantStudio 6 Flex Real-Time PCR System using iTaq Universal SYBR green supermix and the following thermal protocol: 50° C. (2 min), 95° C. (10 min), then 40 cycles of 95° C. (15 sec), 60° C. (1 min). The threshold cycle (CT) values determined for target genes were normalized against those obtained for 18S ribosomal RNA (18S rRNA), which was included as internal control. The generation of specific PCR products was confirmed by dissociation curve analysis.
EMT is a feature of the pathogenesis of fibrosis that is relevant to epithelial tumour metastases and fibrogenesis in organs such as heart, kidney liver and lung, and is known to contribute to idiopathic pulmonary fibrosis (IPF) as well as being thought to make a contribution to the fibrosis known to occur in asthma and COPD. […] The potencies of PF670462 and SS9-010 in modulating induction of CTGF are not statistically distinguishable. […] The potency of these two agents in regulating vimentin induction by TGF-β could not be assessed, as the concentration-response relationship for PF670462 could not be fitted. However, the effects of SS9-010 were significant at 3 μM, whereas PF670462 (3 μM) had no effect.

[2] = test system: Col 1A gene expression in BEAS-2B cells; test: TNFα and TGFβ induced Col 1A gene expression in BEAS-2B cells (RT-qPCR); format: cell-based
Protocol: The primary assay for the activity of the novel CK1δ/ε inhibitors is the modulation of gene expression in the airway epithelial cell line, the BEAS-2B cells. The assay is conducted under several conditions. Generally, TGF-β or TNF-α is used to elicit fibrogenic or inflammatory genes, respectively. The agents are added at a concentration of 10 μM, or at the indicated concentrations for a period of 30 min prior to the addition of TGF-β/TNF-α which are incubated for a further 20 hours before the addition, in some experiments of the glucocorticoid, dexamethasone (Dex, 30 nM) for the final 4 hours of the experiment, prior to harvest of cellular RNA to measure by RT-qPCR the levels of mRNA of marker genes for inflammation and fibrogenesis. The inhaled corticosteroid (ICS), budesonide is also used in some experiments. Furthermore, the supernatants are harvested at the end of the incubation periods in selected experiments to measure the levels of CSF-2 or IL-8 by ELISA as described in (Tran et al. (2005) British Journal of Pharmacology, 145, 123-131).
as §1, §2

liver gene expression = test: Liver fibrogenic gene expression after oral (gavage) dosing in bleomycin-treated mice; format: in vivo, mouse; details: female C57BL6 mice, 30 mg/kg po once daily day −1 to 3, 3 days after transnasal bleomycin
Protocol: FIG. 11. The effects of oral (gavage) PF670462 or […] were investigated in female C57BL6 mice, with a focus on liver gene expression. […] Data are presented as mean±SEM (n=4). In studies to ascertain the effect of oral administration of either PF670462 or SS8-058 we harvested the liver on day 3 from mice that had been treated transnasally with bleomycin on day 0 to measure gene expression of products that are implicated in fibrogenesis. Mice were treated once daily by gavage from day −1 to day 3 with either PF670462 or SS8-058 (30 mg/kg, po).

TGFβ-activated A549 [3] = test: TGFβ-activated A549 gene expression (modulation of mRNA level, RT-qPCR); format: cell-based; details: for CTGF expression / PAI-1 expression / TGF-β-induced suppression of E-cadherin: A549, 0.1-10 μM prior to TGF-β (100 pM) 24 hr; for IC50: Homo sapiens, read-out: -Log IC50 ± SEM (modulation of mRNA level), N-Cadherin induction (converted)
[4] = read-out: -Log IC50 ± SEM (modulation of mRNA level), CTGF induction (converted)
[5] = read-out: -Log IC50 ± SEM (modulation of mRNA level), Col 1A induction (converted)
[6] = read-out: -Log IC50 ± SEM (modulation of mRNA level), E-Cadherin repression (converted)
[7] = read-out: -Log IC50 ± SEM (modulation of mRNA level), PAI-1 induction (converted)
[8] = A549, agent 0.1-10 μM before TGF-β (100 pM) 24 hr

SMILES	effect on vimentin induction by TGF-β (TGFβ-activated A549 [1]; A549, agent 3 μM)	IC50 (TGFβ-activated A549 [1]; [4]) [µM]	IC50 (TGFβ-activated A549 [1]; [5]) [µM]	IC50 (TGFβ-activated A549 [1]; [6]) [µM]	IC50 (TGFβ-activated A549 [1]; [7]) [µM]	Col1A mRNA level, TGF-β ([2]; agent 3 μM) [fold control]	Col1A mRNA level, TNF-α (n = 2) ([2]; agent 3 μM) [fold control]	Col1A mRNA level, vehicle (no stimulus) ([2]; agent 3 μM)	Col1A mRNA level, TGF-β ([2]; agent 10 μM) [fold control]	Col1A mRNA level, TNF-α (n = 2) ([2]; agent 10 μM) [fold control]	Col1A mRNA level, vehicle (no stimulus) ([2]; agent 10 μM) [fold control]	liver baseline mRNA level of PAI-1 (liver gene expression)	liver baseline mRNA level of TMP1 (liver gene expression)	CTGF expression (TGFβ-activated A549 [3])	PAI-1 expression (TGFβ-activated A549 [3])	TGF-β-induced suppression of E-cadherin (TGFβ-activated A549 [3])	-Log IC50 ± SEM (modulation of mRNA level), Vimentin induction (TGFβ-activated A549 [3]; [8])	IC50 (TGFβ-activated A549 [3]; [8]) [µM]	IC50 (TGFβ-activated A549 [1]; read-out: -Log IC50 ± SEM (modulation of mRNA level), Vimentin induction (converted)) [µM]
Cl.Nc1nccc(-c2c(-c3ccc(F)cc3)ncn2C2CCCCC2)n1 [PF670462, 4-(1-Cyclohexyl-4-(4-fluorophenyl)-1H-imidazol-5-yl)pyrimidin-2-amine hydrochloride, reference compound]	no effect	1.45	3.8	8.32	3.89	1.91 ± 0.32	0.52	0.47 ± .04 fold control	1.53 ± 0.33	0.65	0.65 ± 0.02	significant reductions	significant reductions	concentration-dependently inhibited	concentration-dependently inhibited	restored	Inactive	4.47	–
CCCCCCCCN1CCC(n2cnc(-c3ccc(F)cc3)c2-c2ccnc(N)n2)CC1 [SS8-058, 4-(4-(4-Fluorophenyl)-1-[1-octylpiperidin-4-yl]-1H-imidazol-5-yl)pyrimidin-2-amine]	–	–	–	–	–	–	–	–	9.68 ± 1.25	1.11	0.91 ± 0.19	significant reductions	significant reductions	–	–	–	–	–	–
CNc1nccc(-c2c(-c3ccc(F)cc3)ncn2C2CCCCC2)n1 [SS9-010, 4-(1-Cyclohexyl-4-(4-fluorophenyl)-1H-imidazol-5-yl)-N-methylpyrimidin-2-amine]	–	0.447	0.447	2.14	0.661	–	–	–	1.09 ± 0.10	0.37	0.30 ± 0.02	–	–	concentration-dependently inhibited	concentration-dependently inhibited	restored	–	2	3.89
